Test results taken from US12459898B2, “Polycationic amphiphiles as antimicrobial agents and methods using same” (Temple University-Of The Commonwealth System of Higher …, priority 2016, dated 2025).

What was measured:
[1] = Stability of the prepared amphiphiles; assay type: physicochemical; settings: observation after preparation
Procedure: (§1) For the tris-pyridine system, it was initially attempted to alkylate the commercially available O3Pyr, which led to no reaction under a number of SN2-type reaction conditions, presumably due to steric hindrance next to the nucleophilic pyridine nitrogen. The preparation of the “para” isomer via a precedented reductive amination shown in FIG. 4 (52%) was then carried out (Oh et al., 2007, Korean Chem. Soc, 28: 2193-2194, Abdel-Magid et al., 1996, J. Org. Chem, 61: 3849-3862). […] Attempts to prepare homologs led to variable yields and unacceptable purity. While not wishing to be bound by any particular theory it was hypothesized that this could have resulted from a fragmentation event driven by the central nitrogen, which might be circumvented by a change in the electronic distribution of the QAC. […] These amphiphiles were prepared in 71-97% yields, again after recrystallization or trituration. […]

[2] = system: Pseudomonas aeruginosa (PAO1); experiment: Minimum inhibitory concentration (MIC), P. aeruginosa; assay type: cell-based; settings: MH media, 37° C., 72 hours, visual growth
Procedure: (§2) As used herein, the term “minimum inhibitory concentration (MIC)” refers to the lowest concentration of an antimicrobial agent that will inhibit the visible growth of a microorganism after overnight incubation. MIC values against bacteria, for example, the Gram-positive Staphylococcus aureus and Enterococcus faecalis and the Gram-negative Escherichia coli and Pseudomonas aeruginosa were determined by standard methods. See also P. A. Wayne, Methods for Dilution Antimicrobial Tests for Bacteria that Grow Aerobically; Approved Standard, Ninth Edition, 2012, CLSI Document M07-A9, Vol. 32 No. 2, which is incorporated by reference herein in its entirety.
(§3) For all biological assays, laboratory strains of methicillin-susceptible Staphylococcus aureus MSSA (SH1000), Enterococcus faecalis (OG1RF), Escherichia coli (MC4100), Pseudomonas aeruginosa (PAO1), community-acquired methicillin-resistant Staphylococcus aureus CA-MRSA (USA300-0114), and hospital-acquired methicillin-resistant Staphylococcus aureus HA-MRSA (ATCC 33591) were grown with shaking at 37° C. overnight from freezer stocks in 10 mL of the indicated media.
(§4) Compounds were serially diluted two-fold from stock solutions to yield twelve test concentrations. Overnight S. aureus, E. faecalis, E. coli, P. aeruginosa, USA300-0114 (CA-MRSA), and ATCC 33591 (HA-MRSA) cultures diluted to ca. 10^6 cfu/mL in MH media and 100 μL were inoculated into each well of a U-bottom 96-well plate (BD Biosciences, BD 351177) containing 100 μL of compound solution. Plates were incubated statically at 37° C. for 72 hours upon which time wells were evaluated visually for bacterial growth. The MIC was determined as the lowest concentration of compound resulting in no bacterial growth visible to the naked eye, based on the majority of three independent experiments. Aqueous DMSO controls were conducted as appropriate for each compound.

[3] = system: Escherichia coli (MC4100); experiment: Minimum inhibitory concentration (MIC), E. coli; assay type: cell-based; settings: MH media, 37° C., 72 hours, visual growth
Procedure: as §2, §3, §4

[4] = system: methicillin-susceptible Staphylococcus aureus MSSA (SH1000); experiment: Minimum inhibitory concentration (MIC), S. aureus; assay type: cell-based; settings: MH media, 37° C., 72 hours, visual growth
Procedure: as §2, §3, §4

[5] = system: hospital-acquired methicillin-resistant Staphylococcus aureus HA-MRSA (ATCC 33591); experiment: microbe, parasite or virus in culture; assay type: cell-based; settings: Staphylococcus aureus, 72 h, read-out: MIC, HA-MRSA
Procedure: as §2, §3, §4

[6] = system: Enterococcus faecalis (OG1RF); experiment: Minimum inhibitory concentration (MIC), E. faecalis; assay type: cell-based; settings: MH media, 37° C., 72 hours, visual growth
Procedure: as §2, §3, §4

[7] = system: red blood cells (mechanically defibrinated sheep blood); experiment: Red blood cell (RBC) lysis assay (Lysis20); assay type: cell-based; settings: sheep RBCs in PBS, 37° C., 1 hour, absorbance 540 nm; Table 1
Source text: These assessments followed standard protocols (Minbiole et al., 2016, Tetrahedron, 72: 3559-3566, Forman et al., 2016, ChemMedChem, 11: 1401-1405, Forman et al., 2016, ChemMedChem, 11: 958-962, Mitchell et al., 2015, ChemBioChem, 16: 2299-2303, Jennings et al., 2015, ACS Inf. Dis, 1: 304-308, Paniak et al., 2014, Bioorg. Med. Chem. Lett, 24: 5824-5828, Ator et al., 2014, Bioorg. Med. Chem. Lett, 24: 3706-3709, Jennings et al., 2014, ChemBioChem, 15: 2211-2215, Black et al., 2014, Bioorg. Med. Chem. Lett, 24, 99-102, Grenier et al., 2012, Bioorg. Med. Chem. Lett, 22: 4055-4058).
RBC lysis assays were performed on mechanically defibrinated sheep blood (Hemostat Labs: DSB030). 1.5 mL of blood was placed into a microcentrifuge tube and centrifuged at 10,000 rpm for ten minutes. The supernatant was removed and the cells were resuspended with 1 mL of phosphate-buffered saline (PBS). The suspension was centrifuged as previously, the supernatant was removed, and cells were resuspended two more times. The final cell suspension was diluted twentyfold with PBS. The twentyfold suspension dilution was then aliquoted into microcentrifuge tubes containing compound serially diluted in PBS. TritonX (1% by volume) served as a positive control (100% lysis marker) and sterile PBS served as a negative control (0% lysis marker). Samples were then placed in an incubator at 37° C. and shaken at 200 rpm. After 1 hour, the samples were centrifuged at 10,000 rpm for ten minutes. The absorbance of the supernatant was measured with a UV spectrometer at a 540 nm wavelength.

[8] = system: community-acquired methicillin-resistant Staphylococcus aureus CA-MRSA (USA300-0114); experiment: Minimum inhibitory concentration (MIC), CA-MRSA; assay type: cell-based; settings: MH media, 37° C., 72 hours, visual growth
Procedure: as §2, §3, §4

[9] = system: six bacteria (SA, EF, EC, PA, CA-MRSA, HA-MRSA); experiment: Antimicrobial activity (MIC) over the panel of six bacteria; assay type: cell-based
Procedure: as §1
Compounds were serially diluted two-fold from stock solutions to yield twelve test concentrations. […] Plates were incubated statically at 37° C. for 72 hours upon which time wells were evaluated visually for bacterial growth. The MIC was determined as the lowest concentration of compound resulting in no bacterial growth visible to the naked eye, based on the majority of three independent experiments. […]

Compound: CCCCCCCCCCCC[n+]1ccc(CN(Cc2cc[n+](CCCCCCCCCCCC)cc2)Cc2cc[n+](CCCCCCCCCCCC)cc2)cc1 [P3Pyr-12,12,12]
- stability [1]: poor stability
- MIC [2]: 8 µM
- MIC [3]: 2 µM
- MIC [4]: 2 µM
- MIC [5]: 2 µM
- MIC [6]: 2 µM
- Lysis20 (highest concentration at which <20% of RBCs are lysed) [7]: 8 μm
- MIC [8]: 1 µM

Compound: CCCCCCCCCC[n+]1ccc(CN(Cc2cc[n+](CCCCCCCCCC)cc2)Cc2cc[n+](CCCCCCCCCC)cc2)cc1 [P3Pyr-10,10,10]
- stability [1]: poor stability
- MIC [2]: 2 µM
- MIC [3]: 1 µM
- MIC [4]: 0.5 µM
- MIC [5]: 0.5 µM
- MIC [6]: 1 µM
- Lysis20 (highest concentration at which <20% of RBCs are lysed) [7]: 4 μm
- MIC [8]: 0.5 µM

Compound: CCCCCCCCCCC[n+]1ccc(CCCc2cc[n+](CCCCCCCCCCC)cc2)cc1 [2Pyr-11,11]
- MIC [2]: 2 µM
- MIC [3]: 0.5 µM
- antimicrobial activity / bioactivity in words [9]: nanomolar inhibition against 5 of 6 bacteria tested
- MIC [4]: 0.5 µM
- MIC [5]: 0.5 µM
- MIC [6]: 0.25 µM
- Lysis20 (highest concentration at which <20% of RBCs are lysed) [7]: 8 μm
- MIC [8]: 0.25 µM
